Results reported in patent US20110162437A1, “Biomarker for Mitochondrial Toxicity Associated with Phospholipidosis” (priority 2006, published 2011).
Several values for one entry are separate records, joined by “and”; a condition that tells them apart may be missing. Equal values may be shown once.

Experiments:
[1] = potential to induce phospholipidosis judged from amphiphilicity and basic pKa; details: from reduced amphiphilicity and basic pKa
From the text: The structural difference between both molecules can be mainly characterized by the exchange of the piperazine against a morpholine moiety in compound 2.

[2] = tested on: lymphocytes; experiment: Electron microscopic examination of buffy coat lymphocytes for lamellar bodies (determination of phospholipidosis); type: in vivo, rat; details: for Result, PL (grade of severity of phospholipidosis) / lymphocytes %, pos. / lymphocytes positive (with lamellar bodies): individual rats
Procedure: (§1) All animals received (human) care as specified by Swiss law and in accordance with the “Guide for the care and use of laboratory animals” published by the NIH. Male Wistar rats (5 animals/dose-group) were purchased from RCC (Füllingsdorf, Switzerland) and housed individually. Treated animals were dosed orally by gavage with several doses of test compounds (Table 1). Control animals received the same volume of vehicle as placebo. Necropsy was performed 48 (subgroup A) or 168 hours (subgroup B) after a single administration (=Day 1) and urine samples were collected in metabolism cages at 0 to 4° C. (automatically refrigerated by a Tecniplast sampling/cooling unit (RACK B940, Tecniplast, USA)) at the intervals given in the sampling schedule in Table 2 into labelled sample tubes containing 1 ml of an aqueous Na-azide (1%) solution. Before aliquoting, urine volumes were determined.
Blood samples (as much as possible) were withdrawn from all animals at necropsy at about 48 hours after dosing (subgroup A) and about 168 hours after dosing (subgroup B)
The samples were collected from the abdominal aorta or by cardiac puncture under terminal anaesthesia (CO2). A total of at least 2 ml blood was required to gain buffy coat (buffy coat=leukocyte band) samples.
After fixation in 2.5% glutaraldehyde, the buffy coat samples from all animals were embedded in Epon. […] All thin sections were examined ultrastructurally. If possible, 200 lymphocytes per sample were examined for lamellar bodies. The results per sample include the total number of lymphocytes examined, the total number of positive lymphocytes (i.e. with lamellar bodies), the percentage of positive lymphocytes and a grading of severity of phospholipidosis (criteria see table 4)

[3] = basic pKa value; type: physicochemical
[4] = tested on: Male Wistar rats; experiment: PAG measurement by 1H NMR in urine after single oral dose, ratio versus time-matched controls; type: in vivo, rat; details: for PAG: urine, individual animals
Procedure: as §1
Urine samples were taken on day -7,-2,-1, 1, 2, 3, 4, 5, 6 and 7, whereby Day 1 was the Day of dosing.
Immediately after reaching the end of the sampling period, the volume was determined and the samples were centrifuged at 3000 u/min (500 g) for 10 minutes.
Aliquot: Approximately 2 ml was transferred in 1.8 ml cryvials, round bottom, freestanding, with screw caps and septum for NMR-spectroscopic examinations (Bruker Analytik GmbH, Rheinstetten, Germany, Bruker part No. 85372). The vials were stored at −80° C.
Urine samples were prepared and measured on a Bruker 500 MHz NMR instrument according to the COMET 1H-NMR protocol (Keun, H. C et al., (2002) Physiological variation and analytical reproducibility in metabonomic urinalysis. Chem. Res. Tox. 15, 1380-1386) and as described above. In total 467 urine samples were analyzed. After measurement, all data were processed by XWINMR 3.5.6 (Bruker Biospin AG, Fällanden). Representative spectra are depicted in FIG. 2. Phase correction and baseline correction were performed with NMRPROC 0.3 (T. Ebbels, H. Keun; Imperial College). Spectral data were binned using AMIX 2.6 (Bruker Biospin AG, Fällanden) following the COMET Data Processing & Pattern Recognition protocol (Keun, H. C., et al., (2002) Physiological variation and analytical reproducibility in metabonomic urinalysis. Chem. Res. Tox. 15, 1380-1386). QC check procedures (Dieterle F., Ross A., Schlotterbeck G., Senn H. (2006) Probabilistic Quotient Normalization as Robust Method to Account for Dilution of Complex Biological Mixtures. Application in 1H NMR Metabonomics. Anal. Chem. 78, 4281-4290) were applied on binned data to detect outliers. In total 7 outliers were detected and removed from further analysis. All data were mean-centered and normalized using the probabilistic quotient normalization (Dieterle F., Ross A., Schlotterbeck G., Senn H. (2006) Probabilistic Quotient Normalization as Robust Method to Account for Dilution of Complex Biological Mixtures. Application in 1H NMR Metabonomics. Anal. Chem. 78, 4281-4290.). All binned data were annotated and transferred to the ANT (ANT: Affymetrix NMR Toxicology Data System) database.
The exact PAG quantification was performed according to following procedure: • Baseline subtraction of spectra • Integration of PAG peaks ((=7.47 ppm, (=7.39 ppm, (=3.79 ppm, and (=3.7 ppm respectively) and Citrate region ((=2.66-2.74 ppm and 2.50-2.58 ppm). • Quotient normalization (Dieterle F., Ross A., Schlotterbeck G., Senn H. (2006) Probabilistic Quotient Normalization as Robust Method to Account for Dilution of Complex Biological Mixtures. Application in 1H NMR Metabonomics. Anal. Chem. 78, 4281-4290.) • Divide each of the PAG bins by its average (all spectra) to correct for different relaxation times and number of protons • Calculate median out of the PAG bins • Calculate ratio versus time-matched controls

[5] = 300 mg/kg/day, necropsy 168 hours after application
[6] = 300 mg/kg/day, necropsy 48 hours after application, 300 mg/kg/day
[7] = 300 mg/kg/day, necropsy 168 hours after application, 300 mg/kg/day
[8] = 1500 mg/kg/day, necropsy 48 hours after application, 1500 mg/kg/day
[9] = 1500 mg/kg/day, necropsy 168 hours after application, 1500 mg/kg/day
[10] = rat, low-dosed animals (300 mg/kg)

SMILES: Cc1ccccc1-c1cc(N2CCN(C)CC2)ncc1N(C)C(=O)C(C)(C)c1cc(C(F)(F)F)cc(C(F)(F)F)c1 [Compound 1, 2-(3,5-Bis-trifluoromethyl-phenyl)-N-methyl-N-[6-(4-methyl-piperazin-1-yl)-4-o-tolyl-pyridin-3-yl]-isobutyramide]
- potential to induce phospholipidosis [1]: high potential
- recovery of phospholipidosis 168 hours after application ([2]; 300 mg/kg/day): partial or complete recovery
- phospholipidosis severity (group assessment) ([2]; 300 mg/kg/day, necropsied 48 hours after application): minimal to slight
- incidence of affected lymphocytes (range over animals) ([2]; 300 mg/kg/day, necropsied 48 hours after application, data from 3 animals): 5-12%
- incidence of affected lymphocytes (range over animals) [2, 5]: 0-1%
- phospholipidosis severity (group assessment) [2, 5]: minimal or not present
- recovery of phospholipidosis within 168 hours after application ([2]; 1500 mg/kg/day): no indications of recovery
- lymphocytes affected (range) ([2]; 1500 mg/kg/day, both time points (48 and 168 hours)): 15-31%
- phospholipidosis severity (group assessment) ([2]; 1500 mg/kg/day, necropsied 48 hours after application): moderate to marked
- incidence of affected lymphocytes (range over animals) ([2]; 1500 mg/kg/day, necropsied 48 hours after application, data from 4 animals): 15-31%
- phospholipidosis severity (group assessment) ([2]; 1500 mg/kg/day, sacrificed 168 hours after application): moderate to marked
- incidence of affected lymphocytes (range over animals) ([2]; 1500 mg/kg/day, sacrificed 168 hours after application, data from 4 animals): 21-31%
- Result, PL (grade of severity of phospholipidosis) [2, 6]: 1 (≦5%: minimal) and 2 (>5-15%: slight) (2×)
- lymphocytes %, pos. [2, 6]: 5% and 5.7% and 12.2%
- lymphocytes positive (with lamellar bodies) [2, 6]: 10 and 8 and 23
- Result, PL (grade of severity of phospholipidosis) [2, 7]: 1 (≦5%: minimal)
- lymphocytes %, pos. [2, 7]: 0% (2×) and 1.1% and 1% and 0.8%
- lymphocytes positive (with lamellar bodies) [2, 7]: 0 (2×) and 2 (2×) and 1
- Result, PL (grade of severity of phospholipidosis) [2, 8]: 3 (>15-25%: moderate) (2×) and 4 (>25: marked) (2×) and (2) (>5-15%: slight)
- lymphocytes %, pos. [2, 8]: 18.8% and 15.1% and 31% and (5.8) % and 25.7%
- lymphocytes positive (with lamellar bodies) [2, 8]: 36 and 19 and 61 and (3) and 29
- Result, PL (grade of severity of phospholipidosis) [2, 9]: 4 (>25: marked) (2×) and 3 (>15-25%: moderate) (2×)
- lymphocytes %, pos. [2, 9]: 31% and 21% and 28.2% and 24%
- lymphocytes positive (with lamellar bodies) [2, 9]: 62 and 42 and 29 and 25
- lymphocytes containing cytoplasmic lamellar bodies (finding in words) ([2]; rats, single oral dose, necropsy 48 or 168 hours after application): seen and occurred dose dependently
- pKa [3]: 7.67
- PAG ([4]; High_Dose group, Time 0 (within 8 hours before treatment)): 0.3099 and 0.4951 and 0.2661 and 0.1961 and 0.1580 and 0.3419 and 0.1895 and 0.2711 and 0.3305 and 0.4159
- PAG ([4]; High_Dose group, Time 8 (within 8 hours after treatment)): 0.8523 and 0.4093 and 0.7986 and 0.5172 and 0.2995 and 0.4361 and 0.5473 and 0.4307 and 1.0174 and 0.3275
- PAG ([4]; High_Dose group, Time 24 (within 8 to 24 hours after treatment)): 1.7579 and 1.3035 and 1.4190 and 0.4001 and 0.8788 and 1.2898 and 1.4210 and 1.9488 and 1.6305 and 1.2496
- PAG ([4]; High_Dose group, Time −16 (1 day before treatment)): 0.7486 and 0.5615 and 0.6169 and 0.5637 and 0.4281 and 0.4828 and 0.2993 and 0.4535 and 0.5361 and 0.5442
- PAG ([4]; High_Dose group, Time −144 (7 days before treatment)): 0.7666 and 0.8823 and 1.0974 and 0.6021 and 1.2709 and 1.0355
- PAG ([4]; Low_Dose group, Time 0 (within 8 hours before treatment)): 0.3142 and 0.2440 and 0.3422 and 0.2530 and 0.3700 and 0.6319 and 0.3708 and 0.3307 and 0.2336
- PAG ([4]; Low_Dose group, Time 8 (within 8 hours after treatment)): 1.1423 and 0.5270 and 0.3918 and 0.5331 and 0.6815 and 0.2977 and 0.6756 and 0.7527 and 0.4111 and 0.3688
- PAG ([4]; Low_Dose group, Time 24 (within 8 to 24 hours after treatment)): 0.6300 and 0.8072 and 1.0165 and 0.7250 and 0.5035 and 0.6637
- PAG ([4]; Low_Dose group, Time 48 (2 days after treatment)): 0.7584 and 0.6368 and 0.9878 and 0.6461 and 1.0386 and 0.3452 and 0.5698 and 0.3492 and 0.6477
- PAG ([4]; Low_Dose group, Time −16 (1 day before treatment)): 0.2393 and 0.4349 and 0.5528 and 0.5649 and 0.8171 and 0.3201 and 0.5236 and 0.6045 and 0.4646 and 0.2537
- PAG ([4]; Low_Dose group, Time −144 (7 days before treatment)): 0.8210 and 1.1559 and 0.9260 and 0.7456 and 0.8081 and 0.6038 and 1.5903 and 1.1241 and 0.9275 and 0.8848
- increase of mean PAG levels compared to time matched controls ([4]; rat, high-dosed animals (1500 mg/kg)): 4 fold
- mean PAG levels remaining elevated until the end of the study ([4]; rat, high-dosed animals (1500 mg/kg), until 168 h): 3-4 fold
- increase of mean PAG levels compared to time matched controls (factor) [4, 10]: two
- mean levels of PAG at time points later than 72 h [4, 10]: fall below control samples
- start of PAG elevation after dosing ([4]; rat, single oral dose, both dose groups): 24 h
- dose dependant change of PAG levels in urine ([4]; rat, single oral dose, both dose groups, normalized to time matched controls): significant dose dependant elevation
